These results are taken from publication PMC6143478, “Lipophilic activated ester prodrug approach for drug delivery to the intestinal lymphatic system” (Journal of Controlled Release, 2018).

SMILES strings stand for the structures. Values after ≈ are worked out from the molar mass of the structure shown. Where two headings read alike, the source gives them in different places.

A short description of series [1]: Biodistribution to mesenteric lymph nodes (MLN) and lymph following oral administration in rats. In kind it is in vivo. To be noted: BEX analyte, dose equivalent to 10 mg/kg BEX, rat, in words. On the procedure: (§1) The protocols for pharmacokinetic and biodistribution experiments in this study were reviewed and approved by the University of Nottingham Ethical Review Committee in accordance with the Animals [Scientific Procedures] Act 1986. Male Sprague Dawley rats (Charles River Laboratories, UK) weighing 350–380 g were used. The animals were housed in the Bio Support Unit, University of Nottingham. Continuous lymph collection was performed according to a protocol approved by the Institutional Animal Care and Use Committee at Rutgers, The State University of New Jersey. Male Sprague Dawley rats (Envigo, Inc., NJ, USA) weighing 300–350 g were used for the continuous lymph collection. Animals were allowed free access to food and water and were acclimatised for at least 6 days prior to any procedures at both institutions in a controlled-temperature environment with 12 h light/dark cycles.
Formulations were prepared as described in the above pharmacokinetic study and were delivered by an oral gavage. Animals were euthanised at pre-determined time points. Blood was collected from the posterior vena cava and lymph samples were taken from the mesenteric lymph duct. MLNs were dissected and collected as previously described. The MLNs were isolated from surrounding tissue with care not to compromise the integrity of the lymph nodes. The MLNs were homogenised (POLYTRON® PT 10–35 GT, Kinematica AG, Luzern, Switzerland) with 10 mg/mL NaF in water (1,2, w/v) on an ice bath prior to sample preparation for HPLC analysis.
(§2) A combination of protein precipitation and liquid-liquid extraction was applied to samples prior to HPLC injection. To 100 μL sample, 300 μL of acetonitrile was added for protein precipitation and then 300 μL of pH modifier was added when necessary (Supplementary Material Table S2). […] The organic layer was separated and evaporated under N2 gas. Reconstitution solvent (100 μL) was used as detailed in Supplementary Material Table S2 and 40 μL was injected into the HPLC-UV system. […] Therefore, storage and preparation of all samples were performed within the time frame and conditions of confirmed stability.
(§3) The HPLC-UV system consisting of a separation module (Waters Alliance 2695) equipped with a UV detector (Waters 996) was used for analysis. Samples in the autosampler were maintained at 4 °C and the column at 40 °C. The stationary and mobile phases were used as specified in Supplementary Material Table S2. BEX and its prodrugs were detected at 259 nm and RA and its prodrugs at 357 nm.

Another series has as its system DOHH2 cells. Kind of series: Cell growth inhibition MTT assay, DOHH2. It is filed as cell-based. Conditions: 72 h, RA 0.425 μM (0.625% × GI50 of RA). On the procedure: (§4) DLBCL cell lines of DOHH2 and VAL were obtained from the Gene Regulation and RNA Biology group in University of Nottingham. Cell growth inhibition was assessed by MTT assay with a minor modification from previously reported methods [[25], [26], [27]]. Cells were seeded at a density of 2000 cells/well and allowed to adapt overnight. Test compounds were serial-diluted with dimethyl sulfoxide (DMSO) and spiked on the next day to yield 0.1% (v/v) DMSO. Control wells were treated with 0.1% DMSO vehicle alone. At the time of drug addition, separately prepared wells were processed for Tzero readings as previously described. The treated cells were incubated further for 72 h at 37 °C and processed for cell growth assessments.
(§5) Assessment of statistical significance of differences between two groups was conducted by means of two-tailed unpaired t-test. Statistical significance among three or more groups was assessed by means of a one-way ANOVA followed by Tukey's multiple comparisons test. Statistical significance was declared when a p-value was lower than 0.05. […] Pharmacokinetic parameters were calculated by non-compartmental analysis using Phoenix WinNonlin 6.3 software (Pharsight, Mountain View, CA, USA).
(§6) The anticancer effects of BEX and RA were assessed by MTT assay using DLBCL cell lines. The GI50 of each drug was firstly determined in each cell line. […]
On the technique in general: Formazan colour is commonly taken as a measure of viable cells.

A short description of series [2]: Plasma pharmacokinetics following oral administration in rats. In kind it is in vivo, rat. To be noted: for AUC(0-inf) / AUC(0-t) / half-life / Cmax: male, Sprague Dawley, rat, plasma, po, 10 mg/kg, dose equivalent to 10 mg/kg BEX; for AUC(0-inf) / AUC(0-t) / half-life: BEX in plasma; for Cmax: Cmax of BEX in plasma, read-out: C0 or Cmax; for Foral: oral bioavailability of BEX, calculated on AUC0→t after i.v. BEX 2.5 mg/kg [33]. As to the method: as §1
Jugular vein cannulation surgery procedures were conducted under general anaesthesia for blood sampling. The animals were allowed two days to recover following surgery and were fasted up to 12 h prior to experiments with free access to drinking water. Formulations were prepared at concentrations equivalent to 2.5 mg/mL and 10 mg/mL of active drug for intravenous and oral administration, respectively. Solutions of the tested compounds in PEG400 were used as the dosing vehicle for intravenous administration. For oral administration, all prodrugs were administered as a solution in sesame oil to stimulate intestinal lymphatic transport. For oral administration of BEX and RA, oral gavage of sesame oil was administered prior to administration of BEX or RA solution in PEG400 due to low solubility of the two compounds in TG. In the lipid-free group BEX was administered orally formulated as a solution in PEG400. The formulations were administered by an oral gavage for oral administration or via the jugular vein cannula followed by 0.3 mL heparinised saline (50 IU/mL) for intravenous injection. Blood samples of 250 μL volume were collected from the cannula at pre-determined time points following administration. NaF (10 mg/mL) was used as an anticoagulant and inhibitor of esterase activity. Blood samples were centrifuged at 3000 g for 10 min to obtain plasma.
as §2, §3
Assessment of statistical significance of differences between two groups was conducted by means of two-tailed unpaired t-test. Statistical significance among three or more groups was assessed by means of a one-way ANOVA followed by Tukey's multiple comparisons test. Statistical significance was declared when a p-value was lower than 0.05. The analyses were performed on GraphPad Prism version 7.01 (GraphPad Software, Inc., La Jolla, CA, USA). The concentrations that inhibited cell growth by 50% (GI50) were also calculated using GraphPad Prism and isobole plots were presented following a previously reported method to assess synergy between BEX and RA [28]. […]

A further series deals with VAL cells. Kind of series: Cell growth inhibition MTT assay, VAL. Conditions: 72 h, RA 0.400 μM (0.625% × GI50 of RA). In kind it is cell-based. On the procedure:
as §4, §5, §6

Series [3] can be described thus: TG solubility measurement in sesame oil. In kind it is physicochemical. Conditions: oil or lipid, thermodynamic from solid, 37 °C. On the procedure: Compounds were dissolved in fresh aliquots of sesame oil in excessive amounts in glass vials (in triplicate) and stirred using a magnetic stirring bar at 37 °C for 72 h. The mixture was then filtered by centrifugation in a Costar Spin-X Centrifuge Tube (Fisher Scientific, Loughborough, UK) at 2400 g for 5 min. The filtrates were analysed for concentration of the tested compounds by means of HPLC.

In the next series the test system is human chylomicrons (CM). Kind of series: Ex vivo association with human plasma-derived chylomicrons. In kind it is in vitro ADME. Conditions: in words. From the text: The protocol for preparation of human plasma-derived CM emulsion was approved by the Faculty of Medicine and Health Sciences Research Ethics Committee, Queens Medical Centre, Nottingham University Hospitals (BT12102015 CBS SoP). Healthy male volunteers of 19–40 years old and with body mass index of 18.5–25.0 were enrolled in the study after providing informed consent. The participants were excluded if any medication was used within one week prior to enrolment. On the morning of the study, participants received a high-fat meal (equivalent to a full English breakfast). Between 3 and 4 h following breakfast, 30 mL of blood was collected using heparinised tubes (Vacutainer® Blood Collection Tubes) and centrifuged (800 g, 10 min, 15 °C) to obtain plasma.
CM separation was performed as previously reported with minor modifications. Briefly, KBr (0.57 g) was mixed with 4 mL of plasma to yield density of 1.1 g/mL. PBS with densities of 1.006, 1.019, and 1.063 g/mL were prepared by adding appropriate amounts of KBr. These PBS of different densities were layered on top of the plasma to build density gradient layers in polyallomer ultracentrifuge tubes. The samples were then centrifuged at 268,350 g for 35 min at 15 °C using an ultracentrifuge (SORVALL® TH-641 Rotor, Thermo Fisher Scientific, UK). Following ultracentrifugation, approximately 1 mL of the upper layer containing CM was collected. TG concentration of CM emulsion was assessed using the TG enzymatic kit (Sigma Aldrich, Dorset, UK). TG concentration of the emulsion was adjusted to 100 mg/dL by diluting with PBS of 1.006 g/mL density. The CM emulsion was stored at 4 °C until the association assay (˂24 h).
The association of the compounds with artificial lipid particle emulsion and human CM was assessed using previously reported methodology with minor modifications. Briefly, 1 mL of artificial lipid particle or CM emulsions (TG concentration 100 mg/dL) was used for the association assay. The emulsion was spiked with stock solutions of tested compounds (in acetonitrile) to give a final concentration of 1.755 μM. The reaction mixtures were incubated at 37 °C for 1 h with magnetic stirring at 300 rpm. Following the incubation, density gradient ultracentrifugation was applied as described above to isolate the artificial lipid particles or CM associated with the tested compounds from the rest of the experimental medium. All experiments were conducted in quintuplicates or above.

Turning to `C=C(c1ccc(C(=O)O)cc1)c1cc2c(cc1C)C(C)(C)CCC2(C)C` [BEX, bexarotene], the “concentrations of BEX in intestinal lymphatics (MLNs, lymph) relative to plasma” value in series [1] is “lower than those in plasma”. For the same molecule, the “cell growth inhibition by BEX in conjunction with RA” value in the series on DOHH2 cells is “significantly and synergistically inhibited”. Moreover, in series [2] (p.o. (lipid-based)), the AUC(0-inf) (in general, the area under the concentration-time curve extrapolated to infinity) was found to be 6620 ± 1310 ng·h/mL; the AUC(0-t) (as a rule, the area under the concentration-time curve up to a stated or last time point) was 5660 ± 1760 ng·h/mL; the half-life (in general, the time in which the quantity being followed falls by half) was 3.7 ± 1.2 h; the Cmax – broadly, the maximum level reached in the sampled fluid or tissue – is 1100 ± 432 ng/mL. The Foral in series [2] (p.o. (lipid-based)) is listed as 30.6 ± 9.5%. Further, in series [2] (p.o. (lipid-free)), the AUC(0-t) came to 4910 ± 1790 ng·h/mL, the half-life was 3 ± 0.7 h, the Cmax stood at 899 ± 338 ng/mL and the Foral is 26.5 ± 9.6%. Moreover, the AUC(0-inf) in series [2] (p.o. (lipid-free, PEG400)) was 5840 ± 2140 ng·h/mL. Moreover, the “cell growth inhibition by BEX in conjunction with RA” value in the series on VAL cells is “significantly and synergistically inhibited”.

For `C=C(c1ccc(C(=O)OCC(=O)N(CC)CC)cc1)c1cc2c(cc1C)C(C)(C)CCC2(C)C` [prodrug 20], the solubility (commonly the concentration that dissolves in the medium under given conditions) at 72 h in series [3] turned out to be 2670 ± 60 µg/mL (≈ 5.78 mM). Also, the “difference in affinity for artificial emulsion versus natural human CM” value in the series with human chylomicrons (CM) is “significant differences”.
